Experimental data as given in patent US20040132751A1, “Use of desoxypeganine for treating central nervous system symptoms resulting from intoxications by psychotrops” (priority 2001, published 2004).

Test system: rats
Test: animal experiments: recovery of cognitive abilities in rats after administration of deoxypeganine
Type: in vivo
Details: restoration did not occur, or occurred only considerably later, in untreated control animals

SMILES: c1ccc2c(c1)CN1CCCC1=N2 [deoxypeganine, 1,2,3,9-tetrahydropyrrolo[2,1-b]quinazoline]
- recovery of cognitive abilities: able to bring about a recovery of cognitive abilities
